test system: isolated perfused rat hearts; assay: Langendorff isolated perfused rat heart (left ventricular dP/dt); conditions: ex vivo naive Sprague Dawley rat hearts, Langendorff apparatus, as a function of concentration

Compound | left ventricular dP/dtmax (load independent cardiac contractility) | left ventricular dP/dtmin (load independent cardiac relaxation)
COc1cccc(OC)c1-n1c(NS(=O)(=O)[C@@H](C)[C@H](O)c2ncc(C)cn2)nnc1-c1cncc(C)c1 [Example 371.0, (1R,2S)—N-(4-(2,6-dimethoxyphenyl)-5-(5-methylpyridin-3-yl)-4H-1,2,4-triazol-3-yl)-1-hydroxy-1-(5-methylpyrimidin-2-yl)propane-2-sulfonamide] | increases load independent cardiac contractility | increases load independent cardiac relaxation

target: human APJ receptor (Homo sapiens (Human), UniProt P35414); assay: biochemical; format: biochemical; conditions: read-out: Activity hAPJ SPA EC50 IP
Sequence (P35414 whole entry): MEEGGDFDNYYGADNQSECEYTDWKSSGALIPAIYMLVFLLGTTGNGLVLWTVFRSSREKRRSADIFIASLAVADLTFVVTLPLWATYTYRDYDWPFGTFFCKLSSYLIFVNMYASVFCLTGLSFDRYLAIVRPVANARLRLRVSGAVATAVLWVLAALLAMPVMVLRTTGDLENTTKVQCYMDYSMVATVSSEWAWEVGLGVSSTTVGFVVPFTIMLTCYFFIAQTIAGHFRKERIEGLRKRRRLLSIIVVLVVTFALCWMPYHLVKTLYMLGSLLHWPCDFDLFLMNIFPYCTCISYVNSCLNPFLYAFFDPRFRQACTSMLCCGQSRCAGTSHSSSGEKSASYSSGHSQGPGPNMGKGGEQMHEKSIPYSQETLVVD
How it was run: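 Agonist-stimulated [35S]GTPγS (0.2 nM) binding was read by SPA after 90 min at room temperature. Buffer: 20 mM HEPES pH 7.5 with 5 mM MgCl2, 200 mM NaCl, 3 μM GDP, 0.1% BSA; membranes were from a stable human APJ CHO line. EC50 values are averages of independent runs, fitted by non-linear regression.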

Compound | EC50
COc1cccc(OC)c1-n1c(NS(=O)(=O)[C@H](C)[C@@H](OC)c2ccc(Cl)cn2)nnc1-c1cccnc1 (single isomer, unassigned) [Example 531.0, (1S,2R)-1-(5-chloro-2-pyridinyl)-N-(4-(2,6-dimethoxyphenyl)-5-(3-pyridinyl)-4H-1,2,4-triazol-3-yl)-1-methoxy-2-propanesulfonamide or (1R,2S)-1-(5-chloro-2-pyridinyl)-N-(4-(2,6-dimethoxyphenyl)-5-(3-pyridinyl)-4H-1,2,4-triazol-3-yl)-1-methoxy-2-propanesulfonamide] | 0.2 nM
CNc1cccc(-c2nnc(NS(=O)(=O)[C@@H](C)[C@H](C)c3ncc(C)cn3)n2-c2c(F)cccc2F)n1 [Example 791.0, (2S,3R)-N-(4-(2,6-difluorophenyl)-5-(6-(methylamino)-2-pyridinyl)-4H-1,2,4-triazol-3-yl)-3-(5-methyl-2-pyrimidinyl)-2-butanesulfonamide] | 0.63 nM
COc1cccc(-c2nnc(NS(=O)(=O)[C@H](C)[C@@H](OC)c3ncc(C)cn3)n2-c2c(F)cccc2F)n1 [Example 792.0, (1S,2R)-N-(4-(2,6-difluorophenyl)-5-(6-methoxy-2-pyridinyl)-4H-1,2,4-triazol-3-yl)-1-methoxy-1-(5-methyl-2-pyrimidinyl)-2-propanesulfonamide] | 51 nM
Cc1cnc([C@@H](C)[C@H](C)S(=O)(=O)Nc2nnc(-c3cccnc3)n2-c2c(F)cccc2F)nc1 [Example 793.0, (2S,3R)-N-(4-(2,6-difluorophenyl)-5-(3-pyridinyl)-4H-1,2,4-triazol-3-yl)-3-(5-methyl-2-pyrimidinyl)-2-butanesulfonamide] | 15 nM
COc1cnc([C@@H](C)[C@H](C)S(=O)(=O)Nc2nnc(-c3cncc(C)c3)n2-c2c(F)cccc2F)cn1 [Example 794.0, (2S,3R)-N-(4-(2,6-difluorophenyl)-5-(5-methyl-3-pyridinyl)-4H-1,2,4-triazol-3-yl)-3-(5-methoxy-2-pyrazinyl)-2-butanesulfonamide] | 6.6 nM
Cc1cncc(-c2nnc(NS(=O)(=O)[C@@H](C)[C@H](C)c3cnc(C)cn3)n2-c2c(F)cccc2F)c1 [Example 795.0, (2S,3R)-N-(4-(2,6-difluorophenyl)-5-(5-methyl-3-pyridinyl)-4H-1,2,4-triazol-3-yl)-3-(5-methyl-2-pyrazinyl)-2-butanesulfonamide] | 30 nM
Cc1cncc(-c2nnc(NS(=O)(=O)[C@@H](C)[C@H](C)c3ncc(Cl)cn3)n2-c2c(F)cccc2F)c1 [Example 796.0, (2S,3R)-3-(5-chloro-2-pyrimidinyl)-N-(4-(2,6-difluorophenyl)-5-(5-methyl-3-pyridinyl)-4H-1,2,4-triazol-3-yl)-2-butanesulfonamide] | 1.1 nM
COc1ncnc(OC)c1-n1c(NS(=O)(=O)[C@@H](C)[C@H](C)c2cnc(C)cn2)nnc1-c1cccnc1 [Example 806.0, (2S,3R)-N-(4-(4,6-dimethoxy-5-pyrimidinyl)-5-(3-pyridinyl)-4H-1,2,4-triazol-3-yl)-3-(5-methyl-2-pyrazinyl)-2-butanesulfonamide] | 19 nM
C[C@H](c1ccc(Cl)cn1)[C@H](C)S(=O)(=O)Nc1nnc(-c2cccnc2)n1-c1c(O)nc[nH]c1=O [Example 810.0, (2S,3R)-3-(5-chloro-2-pyridinyl)-N-(4-(4-hydroxy-6-oxo-1,6-dihydro-5-pyrimidinyl)-5-(3-pyridinyl)-4H-1,2,4-triazol-3-yl)-2-butanesulfonamide] | 770 nM
COc1ncnc(OC)c1-n1c(NS(=O)(=O)[C@@H](C)[C@@H](OC(C)C)c2ncc(C)cn2)nnc1-c1cncc(C)c1 [Example 829.0, (1S,2S)-N-(4-(4,6-dimethoxy-5-pyrimidinyl)-5-(5-methyl-3-pyridinyl)-4H-1,2,4-triazol-3-yl)-1-(1-methylethoxy)-1-(5-methyl-2-pyrimidinyl)-2-propanesulfonamide] | 9.5 nM
COc1cccc(-c2nnc(NS(=O)(=O)[C@@H]3CCCN(c4ncc(Cl)cn4)C3)n2-c2c(OC)ncnc2OC)n1 [Example 831.0, (3R)-1-(5-chloro-2-pyrimidinyl)-N-(4-(4,6-dimethoxy-5-pyrimidinyl)-5-(6-methoxy-2-pyridinyl)-4H-1,2,4-triazol-3-yl)-3-piperidinesulfonamide, (3S)-1-(5-chloro-2-pyrimidinyl)-N-(4-(4,6-dimethoxy-5-pyrimidinyl)-5-(6-methoxy-2-pyridinyl)-4H-1,2,4-triazol-3-yl)-3-piperidinesulfonamide] | 0.89 nM
COc1cccc(-c2nnc(NS(=O)(=O)CC3CC3)n2-c2c(OC)cccc2OC)n1 [Example 832.0, 1-cyclopropyl-N-(4-(2,6-dimethoxyphenyl)-5-(6-methoxy-2-pyridinyl)-4H-1,2,4-triazol-3-yl)methanesulfonamide] | 110 nM
COc1cccc(-c2nnc(NS(=O)(=O)[C@@H](C)[C@H](C)c3ncc(Cl)cn3)n2C2CCOCC2)n1 [Example 835.0, (2S,3R)-3-(5-chloro-2-pyrimidinyl)-N-(5-(6-methoxy-2-pyridinyl)-4-(tetrahydro-2H-pyran-4-yl)-4H-1,2,4-triazol-3-yl)-2-butanesulfonamide] | 13 nM
COc1cccc(-c2nnc(NS(=O)(=O)[C@@H](C)[C@H](OC)c3ncc(Cl)cn3)n2C2CCOCC2)n1 [Example 836.0, (1R,2S)-1-(5-chloro-2-pyrimidinyl)-1-methoxy-N-(5-(6-methoxy-2-pyridinyl)-4-(tetrahydro-2H-pyran-4-yl)-4H-1,2,4-triazol-3-yl)-2-propanesulfonamide] | 2.9 nM
COc1cccc(-c2nnc(NS(=O)(=O)[C@@H](C)[C@@H](OC(C)C)c3ncc(C)cn3)n2C2CCOCC2)n1 [Example 837.0, (1S,2S)-N-(5-(6-methoxy-2-pyridinyl)-4-(tetrahydro-2H-pyran-4-yl)-4H-1,2,4-triazol-3-yl)-1-(1-methylethoxy)-1-(5-methyl-2-pyrimidinyl)-2-propanesulfonamide] | 5.1 nM
COc1cccc(-c2nnc(NS(=O)(=O)[C@@H](C)[C@H](C)c3ccc(Cl)cn3)n2C2CCOCC2)n1 [Example 840.0, (2S,3R)-3-(5-chloro-2-pyridinyl)-N-(5-(6-methoxy-2-pyridinyl)-4-(tetrahydro-2H-pyran-4-yl)-4H-1,2,4-triazol-3-yl)-2-butanesulfonamide] | 13 nM
COc1cccc(-c2nnc(NS(=O)(=O)[C@@H](C)[C@H](OC)c3ccc(Cl)cn3)n2C2CCOCC2)n1 [Example 841.0, (1R,2S)-1-(5-chloro-2-pyridinyl)-1-methoxy-N-(5-(6-methoxy-2-pyridinyl)-4-(tetrahydro-2H-pyran-4-yl)-4H-1,2,4-triazol-3-yl)-2-propanesulfonamide] | 8.6 nM
COc1cnc([C@@H](C)[C@H](C)S(=O)(=O)Nc2nnc(-c3cccc(OC)n3)n2C2CCOCC2)nc1 [Example 842.0, (2S,3R)-N-(5-(6-methoxy-2-pyridinyl)-4-(tetrahydro-2H-pyran-4-yl)-4H-1,2,4-triazol-3-yl)-3-(5-methoxy-2-pyrimidinyl)-2-butanesulfonamide] | 140 nM
COc1cccc(-c2nnc(NS(=O)(=O)[C@@H](C)[C@H](C)c3cnc(C)cn3)n2C2CCOCC2)n1 [Example 843.0, (2S,3R)-N-(5-(6-methoxy-2-pyridinyl)-4-(tetrahydro-2H-pyran-4-yl)-4H-1,2,4-triazol-3-yl)-3-(5-methyl-2-pyrazinyl)-2-butanesulfonamide] | 970 nM
COc1cnc([C@@H](C)[C@H](C)S(=O)(=O)Nc2nnc(-c3cccc(OC)n3)n2C2CCOCC2)cn1 [Example 844.0, (2S,3R)-3-(5-methoxy-2-pyrazinyl)-N-(5-(6-methoxy-2-pyridinyl)-4-(tetrahydro-2H-pyran-4-yl)-4H-1,2,4-triazol-3-yl)-2-butanesulfonamide] | 86 nM
(2S)-N-(4-(2,6-dimethoxyphenyl)-5-(5-methoxy-2-pyridinyl)-4H-1,2,4-triazol-3-yl)-1-(5-fluoro-2-pyrimidinyl)-2-propanesulfonamide and (2R)-N-(4-(2,6-dimethoxyphenyl)-5-(5-methoxy-2-pyridinyl)-4H-1,2,4-triazol-3-yl)-1-(5-fluoro-2-pyrimidinyl)-2-propanesulfonamide [Example 153.0] | 160 nM

test system: isolated perfused rat hearts; assay: Load independent inotropic effects, ex vivo assay (isolated perfused rat hearts, Langendorff); conditions: percent change over vehicle
Description: Evidence for Load Independent Inotropic Effects with APJ Agonists using Ex Vivo Assay (Isolated Perfused Rat Hearts)
Naive Sprague Dawley® SD rats (Harlan laboratories (Livermore, Calif. USA)) were anesthetized and hearts were excised followed by cannulation in the Langendorff apparatus (Harvard apparatus, Holliston, Mass. USA) via aorta. […] The pressure of the solution causes the aortic valve to shut and the perfusate is then forced into the ostium and the coronary vessels. This allows the heart to beat for several h. A balloon was inserted into the left ventricle (LV) to measure dP/dtmax (derivative of left ventricular pressure) as an index of cardiac contractility. The APJ agonist was perfused constantly in a dose dependent manner into the heart to examine cardiac contractility.

Compound | Isolated Heart Assay dP/dtmax (%) | Isolated Heart Assay dP/dtmin (%)
COc1cccc(OC)c1-n1c(NS(=O)(=O)[C@H](C)[C@@H](OC)c2ccc(Cl)cn2)nnc1-c1cccnc1 (single isomer, unassigned) [Example 531.0, (1S,2R)-1-(5-chloro-2-pyridinyl)-N-(4-(2,6-dimethoxyphenyl)-5-(3-pyridinyl)-4H-1,2,4-triazol-3-yl)-1-methoxy-2-propanesulfonamide or (1R,2S)-1-(5-chloro-2-pyridinyl)-N-(4-(2,6-dimethoxyphenyl)-5-(3-pyridinyl)-4H-1,2,4-triazol-3-yl)-1-methoxy-2-propanesulfonamide] | 4.1% | 1.9%
Cc1cnc([C@@H](C)[C@H](C)S(=O)(=O)Nc2nnc(-c3cncc(C)c3)n2-c2c(F)cccc2F)nc1 [Example 826.0, (2S,3R)-N-(4-(2,6-difluorophenyl)-5-(5-methyl-3-pyridinyl)-4H-1,2,4-triazol-3-yl)-3-(5-methyl-2-pyrimidinyl)-2-butanesulfonamide, (2R,3S)-N-(4-(2,6-difluorophenyl)-5-(5-methyl-3-pyridinyl)-4H-1,2,4-triazol-3-yl)-3-(5-methyl-2-pyrimidinyl)-2-butanesulfonamide] | 6.02% | 5.16%
